Biological target: T1, USP28 (His-tagged USP28-FL-mammalian) (Homo sapiens, UniProt Q96RU2)
T1 construct: Expression of USP28 (1-1077)-TEV-6*His (pTT5 vector); made in house; host or cells: Expi293f cells (pTT5 vector)
T1 sequence (Q96RU2 1-1077): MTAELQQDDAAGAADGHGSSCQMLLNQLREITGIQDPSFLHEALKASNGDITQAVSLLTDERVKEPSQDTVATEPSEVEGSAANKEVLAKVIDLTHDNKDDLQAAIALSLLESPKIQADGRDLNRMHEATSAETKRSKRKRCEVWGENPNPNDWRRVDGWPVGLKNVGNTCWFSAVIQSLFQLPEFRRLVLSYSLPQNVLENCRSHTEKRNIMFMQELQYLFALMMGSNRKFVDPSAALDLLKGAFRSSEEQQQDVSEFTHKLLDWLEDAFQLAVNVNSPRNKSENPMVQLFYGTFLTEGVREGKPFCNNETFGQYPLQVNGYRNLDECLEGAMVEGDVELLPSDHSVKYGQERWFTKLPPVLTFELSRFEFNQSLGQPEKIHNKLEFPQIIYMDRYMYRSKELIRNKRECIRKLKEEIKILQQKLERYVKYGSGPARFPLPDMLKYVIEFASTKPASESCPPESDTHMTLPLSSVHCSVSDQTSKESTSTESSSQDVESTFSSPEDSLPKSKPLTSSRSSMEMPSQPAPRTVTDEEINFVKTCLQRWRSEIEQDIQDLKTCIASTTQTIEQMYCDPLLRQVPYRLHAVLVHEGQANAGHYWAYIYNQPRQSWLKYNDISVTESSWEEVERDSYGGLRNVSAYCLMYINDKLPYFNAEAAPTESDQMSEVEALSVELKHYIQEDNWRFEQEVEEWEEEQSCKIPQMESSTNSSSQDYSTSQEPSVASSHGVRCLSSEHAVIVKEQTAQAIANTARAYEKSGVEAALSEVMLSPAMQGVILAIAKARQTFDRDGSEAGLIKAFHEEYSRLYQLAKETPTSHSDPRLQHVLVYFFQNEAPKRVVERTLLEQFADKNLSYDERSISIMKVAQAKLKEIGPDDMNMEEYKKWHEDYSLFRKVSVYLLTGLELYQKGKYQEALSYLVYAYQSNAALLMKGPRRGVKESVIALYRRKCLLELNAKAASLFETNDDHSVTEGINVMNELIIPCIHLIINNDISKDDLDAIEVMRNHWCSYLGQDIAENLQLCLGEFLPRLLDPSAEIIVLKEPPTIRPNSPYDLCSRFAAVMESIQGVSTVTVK
Test: Ubiquitin-Rhodamine 110 Assay for USP28 Activity, Example A-1(a)
Assay type: biochemical
Settings: Ubiquitin-Rhodamine 110 assay, Example A-1(a); read-out: USP28 A-1(a) IC50 range
Outline: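 IC50 from 4-parameter logistic fit of percent inhibition versus no-enzyme and DMSO controls; compounds 25 μM to 1.3 nM, 3-fold. Ub-Rh110 cleavage (25 nM, below Km) by […] mammalian-expressed USP28-FL-His ran 45 min at room temperature, stopped with 10 mM citric acid, read ex 485/em 535.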

| SMILES | IC50 [nM] |
| --- | --- |
| Cc1ccc2c(N)c(C(=O)N[C@H]3COc4cc(N5C[C@@H]6CCN[C@@H]6C5)ccc4C3)sc2n1 [Example 304, N-[(3R)-7-[(3aS,6aS)-octahydropyrrolo[3,4-b]pyrrol-5-yl]-3,4-dihydro-2H-1-benzopyran-3-yl]-3-amino-6-methylthieno[2,3-b]pyridine-2-carboxamide] | 1 to 50 |
| Cc1ccc2c(N)c(C(=O)N[C@H]3COc4cc(N5C[C@H]6CCN[C@H]6C5)ccc4C3)sc2n1 [Example 305, N-[(3R)-7-[(3aR,6aR)-octahydropyrrolo[3,4-b]pyrrol-5-yl]-3,4-dihydro-2H-1-benzopyran-3-yl]-3-amino-6-methylthieno[2,3-b]pyridine-2-carboxamide] | 1 to 50 |
| Cc1ccc2c(N)c(C(=O)N[C@H]3COc4cc(N5CCC6(CNC6)C5)ccc4C3)sc2n1 [Example 306, 3-amino-N-[(3R)-7-{2,6-diazaspiro[3.4]octan-6-yl}-3,4-dihydro-2H-1-benzopyran-3-yl]-6-methylthieno[2,3-b]pyridine-2-carboxamide] | 1 to 50 |
| Cc1ccc2c(N)c(C(=O)N[C@H]3COc4cc(N5C[C@H](N)[C@]6(CCCO6)C5)ccc4C3)sc2n1 [Example 307, 3-amino-N-[(3R)-7-[(5S,9S)-9-amino-1-oxa-7-azaspiro[4.4]nonan-7-yl]-3,4-dihydro-2H-1-benzopyran-3-yl]-6-methylthieno[2,3-b]pyridine-2-carboxamide] | 1 to 50 |
| Cc1ccc2c(N)c(C(=O)N[C@H]3COc4cc(N5C[C@@H](N)[C@@]6(CCCO6)C5)ccc4C3)sc2n1 [Example 308, 3-amino-N-[(3R)-7-[(5R,9R)-9-amino-1-oxa-7-azaspiro[4.4]nonan-7-yl]-3,4-dihydro-2H-1-benzopyran-3-yl]-6-methylthieno[2,3-b]pyridine-2-carboxamide] | 50 to 200 |
| Cc1ccc2c(N)c(C(=O)N[C@H]3COc4cc(N5C[C@@H](N)[C@]6(CCCO6)C5)ccc4C3)sc2n1 [Example 309, 3-amino-N-[(3R)-7-[(5S,9R)-9-amino-1-oxa-7-azaspiro[4.4]nonan-7-yl]-3,4-dihydro-2H-1-benzopyran-3-yl]-6-methylthieno[2,3-b]pyridine-2-carboxamide] | 1 to 50 |
| Cc1ccc2c(N)c(C(=O)N[C@H]3COc4cc(N5C[C@H](N)[C@@]6(CCCO6)C5)ccc4C3)sc2n1 [Example 310, 3-amino-N-[(3R)-7-[(5R,9S)-9-amino-1-oxa-7-azaspiro[4.4]nonan-7-yl]-3,4-dihydro-2H-1-benzopyran-3-yl]-6-methylthieno[2,3-b]pyridine-2-carboxamide] | 1 to 50 |
| CN[C@H]1CN(c2ccc3c(n2)CC[C@H](NC(=O)c2sc4nc(C)ccc4c2N)C3)C[C@@H]1OC [Example 311, 3-amino-N-[(6S)-2-[(3S,4S)-3-methoxy-4-(methylamino)pyrrolidin-1-yl]-5,6,7,8-tetrahydroquinolin-6-yl]-6-methylthieno[2,3-b]pyridine-2-carboxamide] | 50 to 200 |
| CN[C@H]1CN(c2ccc3c(n2)CC[C@H](NC(=O)c2sc4nc(C)cc(C)c4c2N)C3)C[C@@H]1OC [Example 312, 3-amino-N-[(6S)-2-[(3S,4S)-3-methoxy-4-(methylamino)pyrrolidin-1-yl]-5,6,7,8-tetrahydroquinolin-6-yl]-4,6-dimethylthieno[2,3-b]pyridine-2-carboxamide] | 50 to 200 |
| CCOC[C@@H]1CN(c2ccc3c(c2)OC[C@H](NC(=O)c2sc4nc(C)ccc4c2N)C3)C[C@@H]1N [Example 313, 3-amino-N-[(3R)-7-[(3R,4R)-3-amino-4-(ethoxymethyl)pyrrolidin-1-yl]-3,4-dihydro-2H-1-benzopyran-3-yl]-6-methylthieno[2,3-b]pyridine-2-carboxamide] | 1 to 50 |
| CCOC[C@H]1CN(c2ccc3c(c2)OC[C@H](NC(=O)c2sc4nc(C)ccc4c2N)C3)C[C@H]1N [Example 314, 3-amino-N-[(3R)-7-[(3S,4S)-3-amino-4-(ethoxymethyl)pyrrolidin-1-yl]-3,4-dihydro-2H-1-benzopyran-3-yl]-6-methylthieno[2,3-b]pyridine-2-carboxamide] | 1 to 50 |
| CO[C@H]1CCN(c2ccc3c(c2)OC[C@H](NC(=O)c2sc4nc(C)cc(C)c4c2N)C3)C[C@@H]1N [Example 317, 3-amino-N-[(3R)-7-[(3S,4S)-3-amino-4-methoxypiperidin-1-yl]-3,4-dihydro-2H-1-benzopyran-3-yl]-4,6-dimethylthieno[2,3-b]pyridine-2-carboxamide] | 1 to 50 |
| CO[C@@H]1CCN(c2ccc3c(c2)OC[C@H](NC(=O)c2sc4nc(C)cc(C)c4c2N)C3)C[C@H]1N [Example 318, 3-amino-N-[(3R)-7-[(3R,4R)-3-amino-4-methoxypiperidin-1-yl]-3,4-dihydro-2H-1-benzopyran-3-yl]-4,6-dimethylthieno[2,3-b]pyridine-2-carboxamide] | 1 to 50 |
| Cc1cnc2c(N)c(C(=O)N[C@H]3CCc4cc(N5C[C@H](OC(C)C)[C@@H](N)C5)ccc4C3)sc2n1 [Example 319, 7-amino-N-[(2S)-6-[(3S,4S)-3-amino-4-(propan-2-yloxy)pyrrolidin-1-yl]-1,2,3,4-tetrahydronaphthalen-2-yl]-3-methylthieno[2,3-b]pyrazine-6-carboxamide] | 50 to 200 |
| Cc1ccc2c(N)c(C(=O)N[C@H]3CCc4nc(N5C[C@H](OC(C)C)[C@@H](N)C5)ccc4C3)sc2n1 [Example 320] | 50 to 200 |
| Cc1ccc2c(N)c(C(=O)N[C@H]3CCc4nc(N5C[C@H](N)[C@H](OC(C)C)C5)ccc4C3)sc2n1 [Example 321, 3-amino-N-[(6S)-2-[(3S,4R)-3-amino-4-(propan-2-yloxy)pyrrolidin-1-yl]-5,6,7,8-tetrahydroquinolin-6-yl]-6-methylthieno[2,3-b]pyridine-2-carboxamide] | 200 to 2000 |
| Cc1ccc2c(N)c(C(=O)N[C@H]3CCc4nc(N5C[C@@H](N)[C@@H](OC(C)C)C5)ccc4C3)sc2n1 [Example 322, 3-amino-N-[(6S)-2-[(3R,4S)-3-amino-4-(propan-2-yloxy)pyrrolidin-1-yl]-5,6,7,8-tetrahydroquinolin-6-yl]-6-methylthieno[2,3-b]pyridine-2-carboxamide] | 200 to 2000 |
| CCO[C@H]1CN(c2ccc3c(c2)OC[C@H](NC(=O)c2sc4nc(C)cc(C)c4c2N)C3)C[C@H]1N [Example 324, 3-amino-N-[(3R)-7-[(3R,4S)-3-amino-4-ethoxypyrrolidin-1-yl]-3,4-dihydro-2H-1-benzopyran-3-yl]-4,6-dimethylthieno[2,3-b]pyridine-2-carboxamide] | 50 to 200 |
| CO[C@@]1(C)CN(c2ccc3c(n2)OC[C@H](NC(=O)c2sc4nc(C)ccc4c2N)C3)C[C@@H]1N [Example 325, 3-amino-N-[(3R)-7-[(3S,4S)-4-amino-3-methoxy-3-methylpyrrolidin-1-yl]-2H,3H,4H-pyrano[2,3-b]pyridin-3-yl]-6-methylthieno[2,3-b]pyridine-2-carboxamide] | 50 to 200 |
| CO[C@]1(C)CN(c2ccc3c(n2)OC[C@H](NC(=O)c2sc4nc(C)ccc4c2N)C3)C[C@H]1N [Example 326, 3-amino-N-[(3R)-7-[(3R,4R)-4-amino-3-methoxy-3-methylpyrrolidin-1-yl]-2H,3H,4H-pyrano[2,3-b]pyridin-3-yl]-6-methylthieno[2,3-b]pyridine-2-carboxamide] | 50 to 200 |
| COC[C@H]1CN(c2ccc3c(n2)CC[C@H](NC(=O)c2sc4nc(C)ccc4c2N)C3)C[C@@H]1N [Example 327, 3-amino-N-[(6S)-2-[(3R,4S)-3-amino-4-(methoxymethyl)pyrrolidin-1-yl]-5,6,7,8-tetrahydroquinolin-6-yl]-6-methylthieno[2,3-b]pyridine-2-carboxamide] | 50 to 200 |
| COC[C@@H]1CN(c2ccc3c(n2)CC[C@H](NC(=O)c2sc4nc(C)ccc4c2N)C3)C[C@H]1N [Example 328, 3-amino-N-[(6S)-2-[(3S,4R)-3-amino-4-(methoxymethyl)pyrrolidin-1-yl]-5,6,7,8-tetrahydroquinolin-6-yl]-6-methylthieno[2,3-b]pyridine-2-carboxamide] | 200 to 2000 |
